Measurements as given in article PMC5908784, “Extracellular loops 2 and 3 of the calcitonin receptor selectively modify agonist binding and efficacy” (Biochemical Pharmacology, 2018).
Numbering of substitutions follows the chain as printed. Where a SMILES comes first, the peptide text is derived from it. Bridges are numbered along the chain shown (N, C = ends).

Assays:
Experiment in all cases: cAMP accumulation
Format in all cases: cell-based
Conditions in all cases: mean ± S.E.M.; for Emax: cAMP maximal response, SEM; for EC50: cAMP, CV1-FlpIn cells, 30 min, IBMX
hCTR M367A = biological target: T1, hCTR M367A (Homo sapiens, UniProt P30988, M367A)
T1 construct: c-Myc (N); expressed in transfected cells
T1 sequence (P30988 25-474 M367A): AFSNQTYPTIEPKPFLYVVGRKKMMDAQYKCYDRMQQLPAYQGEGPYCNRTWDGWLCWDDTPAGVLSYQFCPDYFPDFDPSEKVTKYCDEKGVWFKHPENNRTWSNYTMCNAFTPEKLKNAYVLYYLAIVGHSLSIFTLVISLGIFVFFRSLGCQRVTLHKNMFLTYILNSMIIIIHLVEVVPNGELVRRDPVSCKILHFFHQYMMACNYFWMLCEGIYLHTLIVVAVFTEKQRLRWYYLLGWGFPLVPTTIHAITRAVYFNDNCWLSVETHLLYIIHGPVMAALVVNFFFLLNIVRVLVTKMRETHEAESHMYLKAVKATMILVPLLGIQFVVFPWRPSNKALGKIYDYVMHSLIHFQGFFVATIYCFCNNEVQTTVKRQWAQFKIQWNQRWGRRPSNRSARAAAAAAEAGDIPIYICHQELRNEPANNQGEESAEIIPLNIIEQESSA
How it was run: (§1)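 30 min ligand stimulation with IBMX present; cells seeded overnight beforehand. Ethanol extract, dried at RT.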

hCTR D373A = biological target: T2, hCTR D373A (Homo sapiens, UniProt P30988, D373A)
T2 construct: c-Myc (N); expressed in transfected cells
T2 sequence (P30988 25-474 D373A): T1 sequence (P30988 25-474 M367A) with A343M, D349A
How it was run: as §1

hCTR N365A = biological target: T3, hCTR N365A (Homo sapiens, UniProt P30988, N365A)
T3 construct: c-Myc (N); expressed in transfected cells
T3 sequence (P30988 25-474 N365A): T1 sequence (P30988 25-474 M367A) with N341A, A343M
How it was run: as §1

hCTR S292A = biological target: T4, hCTR S292A (Homo sapiens, UniProt P30988, S292A)
T4 construct: expressed in transfected cells
T4 sequence (P30988 25-474 S292A): T1 sequence (P30988 25-474 M367A) with S268A, A343M
How it was run: as §1

hCTR V358A = biological target: T5, hCTR V358A (Homo sapiens, UniProt P30988, V358A)
T5 construct: c-Myc (N); expressed in transfected cells
T5 sequence (P30988 25-474 V358A): T1 sequence (P30988 25-474 M367A) with V334A, A343M
How it was run: as §1

Compound	Emax (hCTR M367A) [%]	EC50 (hCTR M367A) [nM]	Emax (hCTR D373A) [%]	EC50 (hCTR D373A) [nM]	Emax (hCTR N365A) [%]	EC50 (hCTR N365A) [nM]	Emax (hCTR S292A) [%]	EC50 (hCTR S292A) [nM]	Emax (hCTR V358A) [%]	EC50 (hCTR V358A) [nM]
CC(C)C[C@H](NC(=O)CNC(=O)[C@H](C)NC(=O)[C@H](CC(C)C)NC(=O)[C@H](CCCNC(=N)N)NC(=O)[C@H](Cc1cnc[nH]1)NC(=O)[C@@H](NC(=O)[C@@H](NC(=O)[C@@H]1CSSC[C@H](NC(=O)[C@H](C)N)C(=O)N[C@@H](CC(=O)O)C(=O)N[C@@H]([C@@H](C)O)C(=O)N[C@@H](C)C(=O)N[C@@H]([C@@H](C)O)C(=O)N1)C(C)C)[C@@H](C)O)C(=O)N[C@@H](CC(C)C)C(=O)N[C@@H](CO)C(=O)N[C@@H](CCCNC(=N)N)C(=O)N[C@@H](CO)C(=O)NCC(=O)NCC(=O)N[C@H](C(=O)N[C@H](C(=O)N[C@@H](CCCCN)C(=O)N[C@@H](CC(N)=O)C(=O)N[C@@H](CC(N)=O)C(=O)N[C@@H](Cc1ccccc1)C(=O)N[C@H](C(=O)N1CCC[C@H]1C(=O)N[C@H](C(=O)N[C@@H](CC(N)=O)C(=O)N[C@H](C(=O)NCC(=O)N[C@@H](CO)C(=O)N[C@@H](CCCCN)C(=O)N[C@@H](C)C(=O)N[C@@H](Cc1ccccc1)C(N)=O)C(C)C)[C@@H](C)O)C(C)C)C(C)C)C(C)C [hαCGRP]	[…]	[…]	34 ± 5	11.2	111 ± 13	15.5	106 ± 14	22.4	74 ± 9	20.9
CC[C@H](C)[C@H](NC(=O)[C@H](C)NC(=O)[C@@H](NC(=O)[C@H](CCC(N)=O)NC(=O)[C@@H]1CCCN1C(=O)[C@H](Cc1ccccc1)NC(=O)[C@@H](NC(=O)[C@H](Cc1c[nH]cn1)NC(=O)[C@H](Cc1ccccc1)NC(=O)[C@H](CCCCN)NC(=O)[C@H](CC(N)=O)NC(=O)[C@H](Cc1ccccc1)NC(=O)[C@H](CC(=O)O)NC(=O)[C@H](CCC(N)=O)NC(=O)[C@@H](NC(=O)[C@H](Cc1ccc(O)cc1)NC(=O)[C@@H](NC(=O)CNC(=O)[C@H](CC(C)C)NC(=O)[C@H](CCSC)NC(=O)[C@@H]1CSSC[C@H](N)C(=O)NCC(=O)N[C@@H](CC(N)=O)C(=O)N[C@@H](CC(C)C)C(=O)N[C@@H](CO)C(=O)N[C@@H]([C@@H](C)O)C(=O)N1)[C@@H](C)O)[C@@H](C)O)[C@@H](C)O)[C@@H](C)O)C(=O)NCC(=O)N[C@H](C(=O)NCC(=O)N[C@@H](C)C(=O)N1CCC[C@H]1C(N)=O)C(C)C [hCT]	82 ± 4		142 ± 8		96 ± 4		135 ± 13		98 ± 4	
CC(C)C[C@H](NC(=O)[C@H](CC(N)=O)NC(=O)[C@H](CC(N)=O)NC(=O)[C@H](CO)NC(=O)[C@H](CO)NC(=O)[C@H](CCCNC(=N)N)NC(=O)[C@@H](NC(=O)[C@H](CC(C)C)NC(=O)[C@H](Cc1ccccc1)NC(=O)[C@H](CC(N)=O)NC(=O)[C@H](C)NC(=O)[C@H](CC(C)C)NC(=O)[C@H](CCCNC(=N)N)NC(=O)[C@H](CCC(N)=O)NC(=O)[C@@H](NC(=O)[C@H](C)NC(=O)[C@@H]1CSSC[C@H](NC(=O)[C@@H](N)CCCCN)C(=O)N[C@@H](CC(N)=O)C(=O)N[C@@H]([C@@H](C)O)C(=O)N[C@@H](C)C(=O)N[C@@H]([C@@H](C)O)C(=O)N1)[C@@H](C)O)C(C)C)C(=O)NCC(=O)N1CCC[C@H]1C(=O)N[C@H](C(=O)N[C@@H](CC(C)C)C(=O)N1CCC[C@H]1C(=O)N1CCC[C@H]1C(=O)N[C@H](C(=O)N[C@@H](CC(N)=O)C(=O)N[C@H](C(=O)NCC(=O)N[C@@H](CO)C(=O)N[C@@H](CC(N)=O)C(=O)N[C@H](C(=O)N[C@@H](Cc1ccc(O)cc1)C(N)=O)[C@@H](C)O)C(C)C)[C@@H](C)O)C(C)C [rAmy]	93 ± 8		64 ± 16		72 ± 8		95 ± 10		94 ± 13	
CSCC[C@H](NC(=O)CNC(=O)[C@H](CO)NC(=O)[C@H](Cc1ccccc1)NC(=O)[C@H](CCCNC(=N)N)NC(=O)[C@H](Cc1c[nH]cn1)NC(=O)[C@H](Cc1ccccc1)NC(=O)[C@H](CC(N)=O)NC(=O)[C@H](CC(N)=O)NC(=O)[C@H](CC(C)C)NC(=O)[C@H](CC(N)=O)NC(=O)[C@H](CCCNC(=N)N)NC(=O)[C@H](Cc1c[nH]c2ccccc12)NC(=O)[C@H](Cc1ccc(O)cc1)NC(=O)[C@H](C)NC(=O)[C@H](CO)NC(=O)[C@H](CC(C)C)NC(=O)[C@@H](NC(=O)[C@@H]1CSSC[C@H](N)C(=O)N[C@@H](CO)C(=O)N[C@@H](CC(N)=O)C(=O)N[C@@H](CC(C)C)C(=O)N[C@@H](CO)C(=O)N[C@@H]([C@@H](C)O)C(=O)N1)C(C)C)C(=O)NCC(=O)N[C@@H](Cc1ccccc1)C(=O)NCC(=O)N1CCC[C@H]1C(=O)N[C@@H](CCC(=O)O)C(=O)N[C@H](C(=O)N1CCC[C@H]1C(N)=O)[C@@H](C)O [pCT] (H-CSNLSTCVLSAYWRNLNNFHRFSGMGFGPETP-NH2; disulfide 1-7)	73 ± 13	0.0158	158 ± 9	0.389	95 ± 5	0.0316	131 ± 9	0.0316	140 ± 15	0.0316
CC(C)C[C@H](NC(=O)[C@H](CCCCN)NC(=O)CNC(=O)[C@H](CC(C)C)NC(=O)[C@@H](NC(=O)[C@@H]1CSSC[C@H](N)C(=O)N[C@@H](CO)C(=O)N[C@@H](CC(N)=O)C(=O)N[C@@H](CC(C)C)C(=O)N[C@@H](CO)C(=O)N[C@@H]([C@@H](C)O)C(=O)N1)C(C)C)C(=O)N[C@@H](CO)C(=O)N[C@@H](CCC(N)=O)C(=O)N[C@@H](CCC(=O)O)C(=O)N[C@@H](CC(C)C)C(=O)N[C@@H](Cc1c[nH]cn1)C(=O)N[C@@H](CCCCN)C(=O)N[C@@H](CC(C)C)C(=O)N[C@@H](CCC(N)=O)C(=O)N[C@H](C(=O)N[C@@H](Cc1ccc(O)cc1)C(=O)N1CCC[C@H]1C(=O)N[C@@H](CCCNC(=N)N)C(=O)N[C@H](C(=O)N[C@@H](CC(N)=O)C(=O)N[C@H](C(=O)NCC(=O)N[C@@H](CO)C(=O)NCC(=O)N[C@H](C(=O)N1CCC[C@H]1C(N)=O)[C@@H](C)O)[C@@H](C)O)[C@@H](C)O)[C@@H](C)O [sCT]	79 ± 3		116 ± 8		94 ± 5		119 ± 12		139 ± 9	
